Where a SMILES comes first, the peptide text is derived from it. Bridges are numbered along the chain shown (N, C = ends). [ ]: non-standard residue; d: D form. Nva = CCC[C@H](N)C(=O)O; Abu = CC[C@H](N)C(=O)O
Experiments:
endothelin receptor = test: Assay of affinity for receptor (I125-ET-1 binding to porcine myocardial membrane fraction); details: ET-1 = 100
Experimental: A membrane fraction prepared from the porcine heart was diluted to 0.15 mg/ml by using a buffer solution [PBS (pH 7.4) containing 0.5 mM CaCl2, 1.0 mM MgCl2, 0.02% NaN3, 0.1% BSA (fraction V, Sigma), 0.1 mM PMSF and 0.1 μg/ml pepstatin (binding buffer)] for assay, and 100 μl of the resulting suspension of the membrane fraction was poured into each assay tube to use for assay. To this suspension of the membrane fraction were added 2 μl of an endothelin-1 solution labeled with 5 μM radioactive iodine. Further, 3 μl of a test peptide solution was added thereto, followed by maintenance at a temperature of 25° C. for 1 hour. Then, the resulting suspension was diluted with 900 μl of the buffer solution for assay cooled with ice, and thereafter separated into a supernatant and a precipitate by centrifugation at 12,000×g for 10 minutes. Cell membranes and an endothelin receptor embedded therein were contained in the precipitate, and radioactive iodine-labeled endothelin combined with the receptor was also recovered in the precipitate. Accordingly, the amount of radioactive iodine-labeled endothelin combined with the endothelin receptor was determined by measuring the amount of radioactive iodine contained in the precipitate with a gamma-ray counter. Compounds in which the affinity for the endothelin receptor is high and the maximum constriction is not high are antagonists. Contrary to this, compounds in which the affinity for the endothelin receptor is high and the maximum constriction is high are agonists.

porcine coronary artery = type: cell-based; details: for Constrictor activity (Relative potency): ET-1 = 100; for Maximum Constriction (% 60 mM KCl): normalized to constriction response to 60 mM KCl
Experimental: Each of helical strips 2 mm×15 mm prepared from the coronary right ramus circumflexus from which the adventitial connective tissues and the endothelial cells were removed was set to each of 4 ml organ baths. Its tension was detected by a force displacement transducer UL-10GR (Minebea), and recorded by a polygraph (NEC Sanei). The organ baths were maintained at 37° C., and filled with a Krebs-Henseleit solution (composition:118 mM NaCl, 4.7 mM KCl, 2.5 mM CaCl2, 1.2 mM KH2 PO4, 25.0 mM NaHCO3, 1.2 mM MgSO4, 10.0 mM glucose) gassed with 95% O2 and 5% CO2.
A tension of 1.25 to 1.5 g was applied to each of the strips, followed by equilibration for 1.5 hours. 60 mM KCl was repeatedly applied thereto at intervals of 30 minutes until the constriction response became constant. After additional equilibration for 1.5 hours, a sample for assay was given. The constriction of the strips was normalized by the constriction response of the individual strips to 60 mM KCl and statistically processed.
(2) As to the antagonist property or the agonist property of the peptide derivatives of present invention to endothelin, the affinity for an endothelin receptor and the constrictor activity to porcine coronary smooth muscles (according to the method described in (1) described above) were assayed. The affinity for the receptor was assayed by the following method.

SMILES | Receptor binding activity (Relative potency) (endothelin receptor) | Constrictor activity (Relative potency) (porcine coronary artery) | Maximum Constriction (% 60 mM KCl) (porcine coronary artery)
CC[C@H](C)[C@H](NC(=O)CNC(=O)[C@H](CC(C)C)NC(=O)[C@H](Cc1c[nH]cn1)NC(=O)[C@@H]1CSSC[C@H](N)C(=O)N[C@@H](CO)C(=O)N[C@H]2CSSC[C@H](NC(=O)[C@H](CCC(=O)O)NC(=O)[C@H](CCCCN)NC(=O)[C@H](CC(=O)O)NC(=O)[C@H](CCSC)NC(=O)[C@H](CC(C)C)NC(=O)[C@H](CO)NC(=O)[C@H](CO)NC2=O)C(=O)N[C@@H](C(C)C)C(=O)N[C@@H](Cc2ccc(O)cc2)C(=O)N[C@@H](Cc2ccccc2)C(=O)N1)C(=O)N[C@H](C(=O)N[C@@H](Cc1c[nH]c2ccccc12)C(=O)O)[C@@H](C)CC [Example 28, [Gly^18]-ET-1] (H-CSCSSLMDKECVYFCHLGIIW-OH; disulfide 1-15, 3-11) | 39.8 | 43 | 99
CC[C@H](NC(=O)[C@H](CC(C)C)NC(=O)[C@H](Cc1c[nH]cn1)NC(=O)[C@@H]1CSSC[C@H](N)C(=O)N[C@@H](CO)C(=O)N[C@H]2CSSC[C@H](NC(=O)[C@H](CCC(=O)O)NC(=O)[C@H](CCCCN)NC(=O)[C@H](CC(=O)O)NC(=O)[C@H](CCSC)NC(=O)[C@H](CC(C)C)NC(=O)[C@H](CO)NC(=O)[C@H](CO)NC2=O)C(=O)N[C@@H](C(C)C)C(=O)N[C@@H](Cc2ccc(O)cc2)C(=O)N[C@@H](Cc2ccccc2)C(=O)N1)C(=O)N[C@H](C(=O)N[C@H](C(=O)N[C@@H](Cc1c[nH]c2ccccc12)C(=O)O)[C@@H](C)CC)[C@@H](C)CC [Example 30, [Abu^18]-ET-1] (H-CSCSSLMDKECVYFCHL[Abu]IIW-OH; disulfide 1-15, 3-11) | 5.0 | < 0.1 | 6
CCC[C@H](NC(=O)[C@H](CC(C)C)NC(=O)[C@H](Cc1c[nH]cn1)NC(=O)[C@@H]1CSSC[C@H](N)C(=O)N[C@@H](CO)C(=O)N[C@H]2CSSC[C@H](NC(=O)[C@H](CCC(=O)O)NC(=O)[C@H](CCCCN)NC(=O)[C@H](CC(=O)O)NC(=O)[C@H](CCSC)NC(=O)[C@H](CC(C)C)NC(=O)[C@H](CO)NC(=O)[C@H](CO)NC2=O)C(=O)N[C@@H](C(C)C)C(=O)N[C@@H](Cc2ccc(O)cc2)C(=O)N[C@@H](Cc2ccccc2)C(=O)N1)C(=O)N[C@H](C(=O)N[C@H](C(=O)N[C@@H](Cc1c[nH]c2ccccc12)C(=O)O)[C@@H](C)CC)[C@@H](C)CC [Example 31, [Nva^18]-ET-1] (H-CSCSSLMDKECVYFCHL[Nva]IIW-OH; disulfide 1-15, 3-11) | 2.4 | < 0.1 | 2
CC[C@H](C)[C@H](NC(=O)[C@H](Cc1ccccc1)NC(=O)[C@H](CC(C)C)NC(=O)[C@H](Cc1c[nH]cn1)NC(=O)[C@@H]1CSSC[C@H](N)C(=O)N[C@@H](CO)C(=O)N[C@H]2CSSC[C@H](NC(=O)[C@H](CCC(=O)O)NC(=O)[C@H](CCCCN)NC(=O)[C@H](CC(=O)O)NC(=O)[C@H](CCSC)NC(=O)[C@H](CC(C)C)NC(=O)[C@H](CO)NC(=O)[C@H](CO)NC2=O)C(=O)N[C@@H](C(C)C)C(=O)N[C@@H](Cc2ccc(O)cc2)C(=O)N[C@@H](Cc2ccccc2)C(=O)N1)C(=O)N[C@H](C(=O)N[C@@H](Cc1c[nH]c2ccccc12)C(=O)O)[C@@H](C)CC [Example 33, [Phe^18]-ET-1] (H-CSCSSLMDKECVYFCHLFIIW-OH; disulfide 1-15, 3-11) | 2.4 | < 0.1 | 0
CC[C@H](C)[C@H](NC(=O)[C@H](CO)NC(=O)[C@H](CC(C)C)NC(=O)[C@H](Cc1c[nH]cn1)NC(=O)[C@@H]1CSSC[C@H](N)C(=O)N[C@@H](CO)C(=O)N[C@H]2CSSC[C@H](NC(=O)[C@H](CCC(=O)O)NC(=O)[C@H](CCCCN)NC(=O)[C@H](CC(=O)O)NC(=O)[C@H](CCSC)NC(=O)[C@H](CC(C)C)NC(=O)[C@H](CO)NC(=O)[C@H](CO)NC2=O)C(=O)N[C@@H](C(C)C)C(=O)N[C@@H](Cc2ccc(O)cc2)C(=O)N[C@@H](Cc2ccccc2)C(=O)N1)C(=O)N[C@H](C(=O)N[C@@H](Cc1c[nH]c2ccccc12)C(=O)O)[C@@H](C)CC [Example 34, [Ser^18]-ET-1] (H-CSCSSLMDKECVYFCHLSIIW-OH; disulfide 1-15, 3-11) | 20.9 | 18 | 79
CC[C@H](C)[C@H](NC(=O)[C@H](CC(=O)O)NC(=O)[C@H](CC(C)C)NC(=O)[C@H](Cc1c[nH]cn1)NC(=O)[C@@H]1CSSC[C@H](N)C(=O)N[C@@H](CO)C(=O)N[C@@H](CC(C)C)C(=O)N[C@@H](CO)C(=O)N[C@@H](CO)C(=O)N[C@@H](CC(C)C)C(=O)N[C@@H](CCSC)C(=O)N[C@@H](CC(=O)O)C(=O)N[C@@H](CCCCN)C(=O)N[C@@H](CCC(=O)O)C(=O)N[C@@H](CC(C)C)C(=O)N[C@@H](C(C)C)C(=O)N[C@@H](Cc2ccc(O)cc2)C(=O)N[C@@H](Cc2ccccc2)C(=O)N1)C(=O)N[C@H](C(=O)N[C@@H](Cc1c[nH]c2ccccc12)C(=O)O)[C@@H](C)CC [Example 38, [Leu^3,11]-ET-1] (H-CSLSSLMDKELVYFCHLDIIW-OH; disulfide 1-15) | 0.1 | < 0.1 | 10
CC[C@H](C)[C@H](NC(=O)[C@H](CC(=O)O)NC(=O)[C@H](CC(C)C)NC(=O)[C@H](Cc1c[nH]cn1)NC(=O)[C@@H]1CSSC[C@H](N)C(=O)N[C@@H](CO)C(=O)N[C@@H](C(C)C)C(=O)N[C@@H](CO)C(=O)N[C@@H](CO)C(=O)N[C@@H](CC(C)C)C(=O)N[C@@H](CCSC)C(=O)N[C@@H](CC(=O)O)C(=O)N[C@@H](CCCCN)C(=O)N[C@@H](CCC(=O)O)C(=O)N[C@@H](C(C)C)C(=O)N[C@@H](C(C)C)C(=O)N[C@@H](Cc2ccc(O)cc2)C(=O)N[C@@H](Cc2ccccc2)C(=O)N1)C(=O)N[C@H](C(=O)N[C@@H](Cc1c[nH]c2ccccc12)C(=O)O)[C@@H](C)CC [Example 39, [Val^3,11]-ET-1] (H-CSVSSLMDKEVVYFCHLDIIW-OH; disulfide 1-15) | 0.59 | < 0.1 | 34
CC[C@H](C)[C@H](NC(=O)[C@H](CC(C)C)NC(=O)[C@H](Cc1c[nH]cn1)NC(=O)[C@@H]1CSSC[C@H](N)C(=O)N[C@@H](CO)C(=O)N[C@H]2CSSC[C@H](NC(=O)[C@H](CCC(=O)O)NC(=O)[C@H](CCCCN)NC(=O)[C@H](CC(=O)O)NC(=O)[C@H](CCSC)NC(=O)[C@H](CC(C)C)NC(=O)[C@H](CO)NC(=O)[C@H](CO)NC2=O)C(=O)N[C@@H](C(C)C)C(=O)N[C@@H](Cc2ccc(O)cc2)C(=O)N[C@@H](Cc2ccccc2)C(=O)N1)C(=O)N[C@H](C(=O)N[C@H](C(=O)N[C@@H](Cc1c[nH]c2ccccc12)C(=O)O)[C@@H](C)CC)[C@@H](C)CC [Example 43, [Ile^18]-ET-1] (H-CSCSSLMDKECVYFCHLIIIW-OH; disulfide 1-15, 3-11) | 3.2 | < 0.1 | 0
